Publication PMC8325362, “Drugs repurposed for COVID-19 by virtual screening of 6,218 drugs and cell-based assay” (Proceedings of the National Academy of Sciences of the …, 2021)
Like-named read-outs stand apart in the source and are kept apart here.

Tests used:
RdRp [1] = system: RdRp; set-up: method as in ref 28 (a number printed in a supplementary file, which may have a reference list of its own: not looked up in the article's list); details: PDB 4WTG; read-out: Binding affinity to RdRp (IC50); cited from earlier work
[2] = Cytotoxicity (CC50) in Vero cells; details: African green monkey
SARS-CoV-2 [3] = assay: microbe, parasite or virus in culture; details: Severe acute respiratory syndrome coronavirus 2, Vero, 24 h, read-out: SARS-CoV-2 IC50 in Vero cells
M^pro = M^pro (Severe acute respiratory syndrome coronavirus 2, UniProt P0DTD1); format: biochemical; details: FRET assay, 0.1 to 50 μM
SARS-CoV-2 [4] = assay: microbe, parasite or virus in culture; format: cell-based; details: Severe acute respiratory syndrome coronavirus 2, Calu-3, 24 h, Calu-3 cells, MOI 0.5, 24 h
[5] = Cytotoxicity (CC50) in Calu-3 cells; details: human
[6] = read-out: Approx. Cmax (maximum serum concentration); rat, oral; cited from earlier work
SARS-CoV-2 RdRp = SARS-CoV-2 RdRp (Severe acute respiratory syndrome coronavirus 2, UniProt P0DTD1); assay: RdRp enzyme assay kit; format: biochemical; set-up: dose or concentration left out as unconfirmed; details: positive control, even at high concentrations
[7] = Checkerboard drug combination assay, cell viability of Vero cells; details: African green monkey, Vero cells (ATCC CCL-81), Relative cell viability (%); for viability at 24 h, 0.63 μM: Remdesivir 0.63 μM; for viability at 24 h, 1.26 μM: Remdesivir 1.26 μM; for viability at 24 h, 2.52 μM: Remdesivir 2.52 μM; for viability at 24 h, 5.05 μM: Remdesivir 5.05 μM; for viability at 24 h, 10.09 μM: Remdesivir 10.09 μM; for viability at 24 h, 20.18 μM: Remdesivir 20.18 μM; for viability at 24 h, 40.36 μM: Remdesivir 40.36 μM
in vitro [8] = details: human
COVID-19 = details: cited from earlier work
SARS-CoV-2 [9] = assay: in vitro; details: African green monkey
in vitro [10] = details: African green monkey
SARS-CoV-2 [11] = assay: Checkerboard drug combination assay, SARS-CoV-2 inhibition in Vero cells; format: cell-based; details: Severe acute respiratory syndrome coronavirus 2, Vero, read-out: Relative viral inhibition (%); for inhibition at 0.63 µM: Remdesivir 0.63 μM; for inhibition at 1.26 µM: Remdesivir 1.26 μM; for inhibition at 2.52 µM: Remdesivir 2.52 μM; for inhibition at 5.05 µM: Remdesivir 5.05 μM; for inhibition at 10.09 µM: Remdesivir 10.09 μM; for inhibition at 20.18 µM: Remdesivir 20.18 μM; for inhibition at 40.36 µM: Remdesivir 40.36 μM
SARS-CoV-2 [12] = details: assay validation with reference drugs
[13] = read-out: Approx. Cmax (maximum serum concentration); human, intravenous injection; cited from earlier work
RdRp [14] = system: RdRp; set-up: method as in ref 29 (a number printed in a supplementary file, which may have a reference list of its own: not looked up in the article's list); details: PDB 1T05; read-out: Binding affinity to RdRp (IC50); cited from earlier work
Mpro = details: read-out: Binding affinity to Mpro (IC50); PDB 6W63; cited from earlier work

## CC(C)OC(=O)[C@H](C)N[P@](=O)(OC[C@H]1O[C@@H](n2ccc(=O)[nH]c2=O)[C@](C)(F)[C@@H]1O)Oc1ccccc1 [6GS (sofosbuvir)]
RdRp [1]
  IC50: 0.064 µM

## Cc1cc(O)c2c(c1)C(=O)c1cc(O)cc(O)c1C2=O [Emodin]
[2]
  CC50 at 24 h: > 50 µM
SARS-CoV-2 [3]
  IC50: 31.4 µM
M^pro
  inhibitory activity against M^pro: showed inhibitory activities
SARS-CoV-2 [4]
  IC50: 27.9 µM
[5]
  CC50 at 24 h: > 50 µM
[6]
  Cmax: ~0.078 µM

## N#C[C@@]1(c2ccc3c(N)ncnn23)O[C@H](COP(=O)(O)OP(=O)(O)OP(=O)(O)O)[C@@H](O)[C@H]1O [RDV-TP, remdesivir triphosphate]
SARS-CoV-2 RdRp
  activity in RdRp assay: did not show activity

## CCC(CC)COC(=O)[C@H](C)N[P@](=O)(OC[C@H]1O[C@@](C#N)(c2ccc3c(N)ncnn23)[C@H](O)[C@@H]1O)Oc1ccccc1 [Remdesivir]
[7]; Fig. 4B, Omipalisib 0.00 μM
  viability at 24 h, 0.63 μM: 86%
  viability at 24 h, 1.26 μM: 87%
  viability at 24 h, 2.52 μM: 87%
  viability at 24 h, 5.05 μM: 91%
  viability at 24 h, 10.09 μM: 92%
  viability at 24 h, 20.18 μM: 93%
  viability at 24 h, 40.36 μM: 93%
[7]; Fig. 4H, Tipifarnib 0.00 μM
  viability at 24 h, 0.63 μM: 88%
  viability at 24 h, 1.26 μM: 90%
  viability at 24 h, 2.52 μM: 94%
  viability at 24 h, 5.05 μM: 97%
  viability at 24 h, 10.09 μM: 95%
  viability at 24 h, 20.18 μM: 98%
  viability at 24 h, 40.36 μM: 94%
In vitro [8]
  CC50: > 50 µM
SARS-CoV-2 [3]
  IC50: 10.1 µM
COVID-19; 36 out of 53 patients with severe illness
  patients with clinical improvement: 68%
COVID-19; COVID-19 patients, vs 15 d placebo
  average recovery time: 11 days
COVID-19; severe COVID-19 patients
  clinical benefits: no statistically significant clinical benefits
SARS-CoV-2 [9]
  selectivity ratio: 4.96
In vitro [10]
  CC50: > 50 µM
SARS-CoV-2 [11]; Fig. 4A, Omipalisib 0.00 μM
  inhibition at 0.63 µM: 4%
  inhibition at 1.26 µM: 4%
  inhibition at 2.52 µM: 1%
  inhibition at 5.05 µM: 20%
  inhibition at 10.09 µM: 55%
  inhibition at 20.18 µM: 81%
  inhibition at 40.36 µM: 89%
SARS-CoV-2 [11]; Fig. 4G, Tipifarnib 0.00 μM
  inhibition at 0.63 µM: 1%
  inhibition at 1.26 µM: 3%
  inhibition at 2.52 µM: 16%
  inhibition at 5.05 µM: 54%
  inhibition at 10.09 µM: 91%
  inhibition at 20.18 µM: 97%
  inhibition at 40.36 µM: 98%
SARS-CoV-2 [4]
  IC50: 2.49 µM
SARS-CoV-2 [12]
  antiviral activity against SARS-CoV-2 in Vero cells: showed antiviral activity
[13]
  Cmax: ~9 µM

## C[C@H](Cn1cnc2c(N)ncnc21)OCP(=O)(O)O [TNV (tenofovir)]
RdRp [14]
  IC50: 1.3 µM

## CC(C)(C)c1ccc(N(C(=O)c2cnc[nH]2)[C@@H](C(=O)NC2CCCCC2)c2cccnc2)cc1 [X77]
Mpro
  IC50: 2.3 µM
